Results published in BigSolDB 2.1.

NC(=O)Cc1ccc(O)cc1
solubility (mole fraction) (in acetonitrile, 278.15 K): 0.00096 | solubility (mole fraction) (in acetonitrile, 283.15 K): 0.00141 | solubility (mole fraction) (in acetonitrile, 288.15 K): 0.00188 | solubility (mole fraction) (in acetonitrile, 293.15 K): 0.00249 | solubility (mole fraction) (in acetonitrile, 298.15 K): 0.00305 | solubility (mole fraction) (in acetonitrile, 303.15 K): 0.00376 | solubility (mole fraction) (in acetonitrile, 308.15 K): 0.00463 | solubility (mole fraction) (in acetonitrile, 313.15 K): 0.00573 | solubility (mole fraction) (in acetonitrile, 318.15 K): 0.00705 | solubility (mole fraction) (in acetonitrile, 323.15 K): 0.00869 | solubility (mole fraction) (in ethanol, 278.15 K): 0.00381 | solubility (mole fraction) (in ethanol, 283.15 K): 0.00459 | solubility (mole fraction) (in ethanol, 288.15 K): 0.00534 | solubility (mole fraction) (in ethanol, 293.15 K): 0.00638 | solubility (mole fraction) (in ethanol, 298.15 K): 0.00752 | solubility (mole fraction) (in ethanol, 303.15 K): 0.00902 | solubility (mole fraction) (in ethanol, 308.15 K): 0.0107 | solubility (mole fraction) (in ethanol, 313.15 K): 0.0126 | solubility (mole fraction) (in ethanol, 318.15 K): 0.015 | solubility (mole fraction) (in ethanol, 323.15 K): 0.0179 | solubility (mole fraction) (in ethyl acetate, 278.15 K): 0.0017 | solubility (mole fraction) (in ethyl acetate, 283.15 K): 0.00196 | solubility (mole fraction) (in ethyl acetate, 288.15 K): 0.00238 | solubility (mole fraction) (in ethyl acetate, 293.15 K): 0.00297 | solubility (mole fraction) (in ethyl acetate, 298.15 K): 0.00363 | solubility (mole fraction) (in ethyl acetate, 303.15 K): 0.00455 | solubility (mole fraction) (in ethyl acetate, 308.15 K): 0.00557 | solubility (mole fraction) (in ethyl acetate, 313.15 K): 0.00663 | solubility (mole fraction) (in ethyl acetate, 318.15 K): 0.0078 | solubility (mole fraction) (in ethyl acetate, 323.15 K): 0.00932 | solubility (mole fraction) (in isopropanol, 278.15 K): 0.00319 | solubility (mole fraction) (in isopropanol, 283.15 K): 0.00379 | solubility (mole fraction) (in isopropanol, 288.15 K): 0.0046 | solubility (mole fraction) (in isopropanol, 293.15 K): 0.00552 | solubility (mole fraction) (in isopropanol, 298.15 K): 0.00684 | solubility (mole fraction) (in isopropanol, 303.15 K): 0.00852 | solubility (mole fraction) (in isopropanol, 308.15 K): 0.0102 | solubility (mole fraction) (in isopropanol, 313.15 K): 0.0122 | solubility (mole fraction) (in isopropanol, 318.15 K): 0.0142 | solubility (mole fraction) (in isopropanol, 323.15 K): 0.0164 | solubility (mole fraction) (in methanol, 278.15 K): 0.0075 | solubility (mole fraction) (in methanol, 283.15 K): 0.00824 | solubility (mole fraction) (in methanol, 288.15 K): 0.00951 | solubility (mole fraction) (in methanol, 293.15 K): 0.0111 | solubility (mole fraction) (in methanol, 298.15 K): 0.0128 | solubility (mole fraction) (in methanol, 303.15 K): 0.0148 | solubility (mole fraction) (in methanol, 308.15 K): 0.0169 | solubility (mole fraction) (in methanol, 313.15 K): 0.0192 | solubility (mole fraction) (in methanol, 318.15 K): 0.0218 | solubility (mole fraction) (in methanol, 323.15 K): 0.0246 | solubility (mole fraction) (in methyl acetate, 278.15 K): 0.0032 | solubility (mole fraction) (in methyl acetate, 283.15 K): 0.00359 | solubility (mole fraction) (in methyl acetate, 288.15 K): 0.00415 | solubility (mole fraction) (in methyl acetate, 293.15 K): 0.00486 | solubility (mole fraction) (in methyl acetate, 298.15 K): 0.00577 | solubility (mole fraction) (in methyl acetate, 303.15 K): 0.0068 | solubility (mole fraction) (in methyl acetate, 308.15 K): 0.00779 | solubility (mole fraction) (in methyl acetate, 313.15 K): 0.00908 | solubility (mole fraction) (in methyl acetate, 318.15 K): 0.0103 | solubility (mole fraction) (in methyl acetate, 323.15 K): 0.0118 | solubility (mole fraction) (in n-butanol, 278.15 K): 0.00284 | solubility (mole fraction) (in n-butanol, 283.15 K): 0.00346 | solubility (mole fraction) (in n-butanol, 288.15 K): 0.00428 | solubility (mole fraction) (in n-butanol, 293.15 K): 0.00508 | solubility (mole fraction) (in n-butanol, 298.15 K): 0.00642 | solubility (mole fraction) (in n-butanol, 303.15 K): 0.00754 | solubility (mole fraction) (in n-butanol, 308.15 K): 0.00899 | solubility (mole fraction) (in n-butanol, 313.15 K): 0.0106 | solubility (mole fraction) (in n-butanol, 318.15 K): 0.0125 | solubility (mole fraction) (in n-butanol, 323.15 K): 0.0144 | solubility (mole fraction) (in n-butyl acetate, 278.15 K): 0.00269 | solubility (mole fraction) (in n-butyl acetate, 283.15 K): 0.003 | solubility (mole fraction) (in n-butyl acetate, 288.15 K): 0.00345 | solubility (mole fraction) (in n-butyl acetate, 293.15 K): 0.0041 | solubility (mole fraction) (in n-butyl acetate, 298.15 K): 0.00491 | solubility (mole fraction) (in n-butyl acetate, 303.15 K): 0.00587 | solubility (mole fraction) (in n-butyl acetate, 308.15 K): 0.00694 | solubility (mole fraction) (in n-butyl acetate, 313.15 K): 0.00812 | solubility (mole fraction) (in n-butyl acetate, 318.15 K): 0.00935 | solubility (mole fraction) (in n-butyl acetate, 323.15 K): 0.0105 | solubility (mole fraction) (in n-heptane, 278.15 K): 0.00061 | solubility (mole fraction) (in n-heptane, 283.15 K): 0.00087 | solubility (mole fraction) (in n-heptane, 288.15 K): 0.00111 | solubility (mole fraction) (in n-heptane, 293.15 K): 0.00145 | solubility (mole fraction) (in n-heptane, 298.15 K): 0.00194 | solubility (mole fraction) (in n-heptane, 303.15 K): 0.00253 | solubility (mole fraction) (in n-heptane, 308.15 K): 0.00329 | solubility (mole fraction) (in n-heptane, 313.15 K): 0.00418 | solubility (mole fraction) (in n-heptane, 318.15 K): 0.00509 | solubility (mole fraction) (in n-heptane, 323.15 K): 0.00627 | solubility (mole fraction) (in n-hexane, 278.15 K): 0.00032 | solubility (mole fraction) (in n-hexane, 283.15 K): 0.00053 | solubility (mole fraction) (in n-hexane, 288.15 K): 0.00082 | solubility (mole fraction) (in n-hexane, 293.15 K): 0.00116 | solubility (mole fraction) (in n-hexane, 298.15 K): 0.00151 | solubility (mole fraction) (in n-hexane, 303.15 K): 0.00205 | solubility (mole fraction) (in n-hexane, 308.15 K): 0.00263 | solubility (mole fraction) (in n-hexane, 313.15 K): 0.00343 | solubility (mole fraction) (in n-hexane, 318.15 K): 0.00438 | solubility (mole fraction) (in n-hexane, 323.15 K): 0.0056 | solubility (mole fraction) (in n-propanol, 278.15 K): 0.00215 | solubility (mole fraction) (in n-propanol, 283.15 K): 0.00245 | solubility (mole fraction) (in n-propanol, 288.15 K): 0.00292 | solubility (mole fraction) (in n-propanol, 293.15 K): 0.0035 | solubility (mole fraction) (in n-propanol, 298.15 K): 0.00424 | solubility (mole fraction) (in n-propanol, 303.15 K): 0.0052 | solubility (mole fraction) (in n-propanol, 308.15 K): 0.00629 | solubility (mole fraction) (in n-propanol, 313.15 K): 0.00734 | solubility (mole fraction) (in n-propanol, 318.15 K): 0.00868 | solubility (mole fraction) (in n-propanol, 323.15 K): 0.01 | solubility (mole fraction) (in water, 278.15 K): 0.00096 | solubility (mole fraction) (in water, 283.15 K): 0.00141 | solubility (mole fraction) (in water, 288.15 K): 0.00188 | solubility (mole fraction) (in water, 293.15 K): 0.00249 | solubility (mole fraction) (in water, 298.15 K): 0.00305 | solubility (mole fraction) (in water, 303.15 K): 0.00376 | solubility (mole fraction) (in water, 308.15 K): 0.00463 | solubility (mole fraction) (in water, 313.15 K): 0.00573 | solubility (mole fraction) (in water, 318.15 K): 0.00705 | solubility (mole fraction) (in water, 323.15 K): 0.00869
